What was measured:
[1] = test system: corn; experiment: Test A preemergence; format: in vivo, Zea mays; details: Zea mays, pre-emergence, 240 h
Method in brief: (§1)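 Pre- and postemergence greenhouse screen. Soil: loam + sand. Spray carrier: solvent mixture, non-phytotoxic, with surfactant. Post timing at 1–2 leaves, height 2–10 cm. Readout: visual injury on a 0–100 scale roughly 10 days after application, untreated plants as reference.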

[2] = test system: barnyardgrass; experiment: Test A postemergence; format: in vivo, Echinochloa crus-galli; details: Echinochloa crus-galli, post-emergence, 240 h
Method in brief: as §1

[3] = test system: corn; experiment: Test C postemergence; format: in vivo, Zea mays; details: Zea mays, post-emergence
Method in brief: (§2)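 Greenhouse herbicide screen. Pre: seeded loam/sand, sprayed at planting. Post: 1–4 leaf plants (2–18 cm) in peat-based mix. Formulation: solvent mixture + surfactant, non-phytotoxic. Readout: visual % control vs untreated, 13–15 d; dash = not tested.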

[4] = test system: barnyardgrass; experiment: Test B flooded paddy test; format: in vivo, Echinochloa crus-galli; details: Echinochloa crus-galli; Flood, 250 g ai/ha; 0 to 100 scale where 0 is no effect and 100 is complete control; read-out: Plant response rating, Barnyardgrass
Method in brief: (§3)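 Visual ratings on a 0 to 100 scale, where 100 means complete control, compared treated plants with controls after 13 to 15 days in a greenhouse. Treatment went into paddy water 3 cm deep over the soil, applied to plants at the 2-leaf stage.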

[5] = test system: Heteranthera limosa; experiment: Test B flooded paddy test; format: in vivo; details: Heteranthera limosa, Flood, 250 g ai/ha; 0 to 100 scale where 0 is no effect and 100 is complete control; read-out: Plant response rating, Ducksalad
Method in brief: as §3

[6] = test system: morningglory; experiment: Test A preemergence; format: in vivo, Ipomoea spp.
Method in brief: as §1

[7] = test system: velvetleaf; experiment: Test A preemergence; format: in vivo, Abutilon theophrasti
Method in brief: as §1

[8] = test system: giant foxtail; experiment: Test C postemergence; format: in vivo, Setaria faberii; details: Setaria faberi, post-emergence
Method in brief: as §2

[9] = test system: soybean; experiment: Test C postemergence; format: in vivo, Glycine max; details: Glycine max, post-emergence
Method in brief: as §2

[10] = test system: wheat; experiment: Test A postemergence; format: in vivo, Triticum aestivum; details: Triticum aestivum, post-emergence, 240 h
Method in brief: as §1

[11] = test system: sedge, umbrella; experiment: Test B flooded paddy test; format: in vivo, Cyperus difformis; details: Cyperus difformis, Flood, 250 g ai/ha; 0 to 100 scale where 0 is no effect and 100 is complete control; read-out: Plant response rating, Sedge, Umbrella
Method in brief: as §3

[12] = test system: wheat, winter; experiment: Test C postemergence; format: in vivo, Triticum aestivum; details: Triticum aestivum, post-emergence
Method in brief: as §2

[13] = test system: morningglory; experiment: Test C postemergence; format: in vivo, Ipomoea coccinea; details: Ipomoea, post-emergence
Method in brief: as §2

[14] = test system: large (Lg) crabgrass; experiment: Test A preemergence; format: in vivo, Digitaria sanguinalis; details: Digitaria sanguinalis, pre-emergence, 240 h
Method in brief: as §1

[15] = test system: yellow nutsedge; experiment: Test C postemergence; format: in vivo, Cyperus esculentus; details: Cyperus, post-emergence
Method in brief: as §2

[16] = test system: rice; experiment: Test B flooded paddy test; format: in vivo, Oryza sativa; details: Oryza sativa; Flood, 250 g ai/ha; 0 to 100 scale where 0 is no effect and 100 is complete control; read-out: Plant response rating, Rice
Method in brief: as §3

[17] = test system: ragweed; experiment: Test C postemergence; format: in vivo, Ambrosia elatior; details: Ambrosia artemisiifolia, post-emergence
Method in brief: as §2

[18] = 125 g ai/ha, 0 to 100 scale where 0 is no effect and 100 is complete control
[19] = Postemergence, 31 g ai/ha, scale 0 to 100 (0 no effect, 100 complete control), 13 to 15 days
[20] = Postemergence, 62 g ai/ha, scale 0 to 100 (0 no effect, 100 complete control)

N#Cc1cccc(Oc2ncc(Cl)cn2)c1-n1cc(Br)cn1 [Compound 52, 2-(4-bromo-1H-pyrazol-1-yl)-3-[(5-chloro-2-pyrimidinyl)oxy]benzonitrile]
Corn plant response rating (crop injury, 0 = no effect, 100 = complete kill) at 125 g/ha [1, 18]: 20% | plant injury at 500 g/ha ([1]; 500 g ai/ha, 0 to 100 scale, 0 no effect, 100 complete control, approx. 10 days, read-out: Corn plant response rating): 80% | pest or weed control at 125 g/ha ([2]; 125 g ai/ha, 0 to 100 scale where 0 is no effect and 100 is complete control, read-out: Plant response rating, Barnyardgrass): 90% | pest or weed control at 500 g/ha ([2]; 500 g ai/ha, 0 to 100 scale, 0 no effect, 100 complete control, read-out: Plant response rating Barnyardgrass): 100% | plant injury at 125 g/ha ([3]; 125 g ai/ha, postemergence, read-out: Plant response rating (0 to 100), Corn): 10% | plant injury at 250 g/ha ([3]; 250 g ai/ha, postemergence, read-out: Plant response rating (0 to 100), Corn): 10% | Corn plant response rating (crop injury, 0 = no effect, 100 = complete kill) at 31 g/ha [3, 19]: 5% | Corn plant response rating (crop injury, 0 = no effect, 100 = complete kill) at 62 g/ha [3, 20]: 10% | pest or weed control at 250 g/ha [4]: 30% | pest or weed control at 250 g/ha [5]: 70% | Plant response rating, Morningglory [6, 18]: 90 | pest or weed control at 500 g/ha ([6]; Ipomoea, pre-emergence, 240 h, 500 g ai/ha, 0 to 100 scale, 0 no effect, 100 complete control, approx. 10 days, read-out: Morningglory plant response rating): 100% | Plant response rating, Velvetleaf [7, 18]: 100 | pest or weed control at 500 g/ha ([7]; Abutilon theophrasti, pre-emergence, 240 h, 500 g ai/ha, 0 to 100 scale, 0 no effect, 100 complete control, approx. 10 days, read-out: Velvetleaf plant response rating): 100% | pest or weed control at 125 g/ha ([8]; 125 g ai/ha, postemergence, read-out: Plant response rating (0 to 100), Foxtail, Giant): 70% | pest or weed control at 250 g/ha ([8]; 250 g ai/ha, postemergence, read-out: Plant response rating (0 to 100), Foxtail, Giant): 70% | pest or weed control at 31 g/ha ([8]; Postemergence, 31 g ai/ha, scale 0 to 100 (0 no effect, 100 complete control), 13 to 15 days, read-out: Plant response rating, Foxtail, Giant): 45% | pest or weed control at 62 g/ha ([8]; Postemergence, 62 g ai/ha, scale 0 to 100 (0 no effect, 100 complete control), read-out: Plant response rating, Foxtail, Giant): 50% | Soybean plant response rating (crop injury, 0-100 scale) at 125 g/ha ([9]; 125 g ai/ha, postemergence, read-out: Plant response rating (0 to 100), Soybean): 95% | Soybean plant response rating (crop injury, 0-100 scale) at 250 g/ha ([9]; 250 g ai/ha, postemergence): 95% | Soybean plant response rating (crop injury, 0-100 scale) at 31 g/ha [9, 19]: 40% | Soybean plant response rating (crop injury, 0-100 scale) at 62 g/ha [9, 20]: 90% | plant injury at 125 g/ha ([10]; 125 g ai/ha, 0 to 100 scale where 0 is no effect and 100 is complete control, read-out: Plant response rating, Wheat): 40% | plant injury at 500 g/ha ([10]; 500 g ai/ha, 0 to 100 scale, 0 no effect, 100 complete control, read-out: Plant response rating Wheat): 100% | pest or weed control at 250 g/ha [11]: 95% | plant injury at 125 g/ha ([12]; 125 g ai/ha, postemergence, read-out: Plant response rating (0 to 100), Wheat): 5% | plant injury at 250 g/ha ([12]; 250 g ai/ha, postemergence, read-out: Plant response rating (0 to 100), Wheat): 5% | plant injury at 31 g/ha ([12]; Postemergence, 31 g ai/ha, scale 0 to 100 (0 no effect, 100 complete control), 13 to 15 days, read-out: Plant response rating, Wheat): 0% | plant injury at 62 g/ha ([12]; Postemergence, 62 g ai/ha, scale 0 to 100 (0 no effect, 100 complete control), read-out: Plant response rating, Wheat): 0% | pest or weed control at 125 g/ha ([13]; 125 g ai/ha, postemergence, read-out: Plant response rating (0 to 100), Morningglory): 95% | pest or weed control at 250 g/ha ([13]; 250 g ai/ha, postemergence, read-out: Plant response rating (0 to 100), Morningglory): 100% | pest or weed control at 31 g/ha ([13]; Postemergence, 31 g ai/ha, scale 0 to 100 (0 no effect, 100 complete control), 13 to 15 days, read-out: Plant response rating, Morningglory): 80% | pest or weed control at 62 g/ha ([13]; Postemergence, 62 g ai/ha, scale 0 to 100 (0 no effect, 100 complete control), read-out: Plant response rating, Morningglory): 80% | pest or weed control at 125 g/ha ([14]; 125 g ai/ha, 0 to 100 scale where 0 is no effect and 100 is complete control, read-out: Plant response rating, Crabgrass, Large): 100% | pest or weed control at 500 g/ha ([14]; 500 g ai/ha, 0 to 100 scale, 0 no effect, 100 complete control, approx. 10 days, read-out: Crabgrass, Large plant response rating): 100% | pest or weed control at 125 g/ha ([15]; 125 g ai/ha, postemergence, read-out: Plant response rating (0 to 100), Nutsedge, Yellow): 5% | pest or weed control at 250 g/ha ([15]; 250 g ai/ha, postemergence, read-out: Plant response rating (0 to 100), Nutsedge, Yellow): 30% | pest or weed control at 31 g/ha ([15]; Postemergence, 31 g ai/ha, scale 0 to 100 (0 no effect, 100 complete control), 13 to 15 days, read-out: Plant response rating, Nutsedge, Yellow): 0% | pest or weed control at 62 g/ha ([15]; Postemergence, 62 g ai/ha, scale 0 to 100 (0 no effect, 100 complete control), read-out: Plant response rating, Nutsedge, Yellow): 5% | plant injury at 250 g/ha [16]: 20% | pest or weed control at 125 g/ha ([17]; 125 g ai/ha, postemergence, read-out: Plant response rating (0 to 100), Ragweed): 80% | pest or weed control at 250 g/ha ([17]; 250 g ai/ha, postemergence, read-out: Plant response rating (0 to 100), Ragweed): 95% | pest or weed control at 31 g/ha ([17]; Postemergence, 31 g ai/ha, scale 0 to 100 (0 no effect, 100 complete control), 13 to 15 days, read-out: Plant response rating, Ragweed): 40% | pest or weed control at 62 g/ha ([17]; Postemergence, 62 g ai/ha, scale 0 to 100 (0 no effect, 100 complete control), read-out: Plant response rating, Ragweed): 45%

Source: US9695155B2, “Herbicidal substituted pyrimidinyloxy benzene compounds” (E. I. DU PONT DE NEMOURS AND COMPANY, priority 2013, dated 2017)
